Laboratory results as given in ChEMBL document CHEMBL1145230, “Syntheses of 2,4,6-trisubstituted pyrimidine derivatives as a new class of antifilarial topoisomerase II inhibitors” (Bioorg Med Chem Lett, 2005).
Active and inactive are the calls of the source. The calls are words filed in the database; no cut-off is given here.

Columns and labels:
Type in all cases: functional
[1] = test system: Setaria cervi; assay: Percent inhibition of filarial parasite Setaria cervi by compound at 5 ug/mL concentration
[2] = test system: Setaria cervi; assay: Percent inhibition of filarial parasite Setaria cervi by compound at 10 ug/mL concentration
[3] = test system: Setaria cervi; assay: Percent inhibition of filarial parasite Setaria cervi by compound at 20 ug/mL concentration
[4] = test system: Setaria cervi; assay: Percent inhibition of filarial parasite Setaria cervi by compound at 40 ug/mL concentration
[5] = test system: Setaria cervi; assay: Percent inhibition of filarial parasite Setaria cervi by compound at 10 ug/mL concentration; NI = no inhibition
[6] = test system: Setaria cervi; assay: Percent inhibition of filarial parasite Setaria cervi by compound at 5 ug/mL concentration; NI = no inhibition

Row | Structure (SMILES) | inhibition [1] | inhibition [2] | inhibition [3] | inhibition [4] | inhibition [5] | inhibition [6]
1 | Nc1nc(NCCCN2CCOCC2)cc(-c2cccs2)n1 | 60% | 80% | 80% | 80% |  | 
2 | CN1CCN(c2cc(-c3cccs3)nc(N)n2)CC1 | 60% | 80% | 80% | 80% |  | 
3 | CCN(CC)C(=O)N1CCN(C)CC1 |  |  | 10% | 45% | inactive | inactive
4 | CN1CCN(c2cc(-c3cccs3)nc(-c3ccc(N)cc3)n2)CC1 | 25% | 80% | 80% | 80% |  | 
5 | CCn1cc(C(=O)O)c(=O)c2ccc(C)nc21 |  | 20% | 40% | 80% |  | inactive
6 | Nc1nc(NCCO)cc(-c2cccs2)n1 |  |  | 60% | 60% | inactive | inactive
7 | Nc1ccc(-c2nc(NCCCN3CCOCC3)cc(-c3cccs3)n2)cc1 | 40% | 70% | 70% | 70% |  | 
8 | CO[C@@H]1[C@@H](OC(N)=O)[C@@H](O)[C@H](Oc2ccc3c(O)c(NC(=O)c4ccc(O)c(CC=C(C)C)c4)c(=O)oc3c2C)OC1(C)C |  | 10% | 20% | 80% |  | inactive
9 | CCCNc1cc(-c2cccs2)nc(N)n1 |  |  | 60% | 60% | inactive | inactive
10 | Nc1nc(NCCN2CCOCC2)cc(-c2cccs2)n1 |  | 80% | 80% | 80% |  | inactive
